Measured values: US20260285853A1, “COMPOUNDS AND METHODS FOR MODULATING SPLICING” (REMIX THERAPEUTICS INC., priority 2023, published 2026)
Where two headings read alike, the source gives them in different places.

Experiments:
Assay type in all cases: cell-based
[1] = test system: SH-SY5Y (human neuroblastoma) cells; assay: Cell viability, Cell Titer Glo 2.0 assay; conditions: read-out: Viability SHSY5Y.3 GI50
Method in brief: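 CellTiter-Glo 2.0 luminescence read-out after 72 h compound exposure (37 °C, 5% CO2); medium-only wells as blank. DMSO 0.1% final.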

HTT mRNA [2] = assay: Splicing RT-qPCR assay (THP), Table 2A
HTT mRNA [3] = assay: Gene panel canonical junction qPCR assay, decrease in CJ mRNA, Table 3
Method in brief: (§1)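 Cells: A673 or K562; 24 h compound exposure, 37 °C, 5% CO2; 11-pt 3-fold series from 10 uM final; DMSO ≤0.25%. Lysate → cDNA → qPCR with junction-spanning primers/probe for CJ transcript. ΔCt vs housekeeper, ΔΔCt vs DMSO, 2^(−ΔΔCt), % response, 4PL → IC50.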

MYB mRNA [4] = assay: as above
Method in brief: as §1

MYB mRNA [5] = assay: Splicing RT-qPCR assay (THP), Table 2A
[6] = Table 2A, THP, HTT alternative junction (AJ) mRNA, read-out: HTT AJ (AC50, increase in alternative junction mRNA)
[7] = Table 2A, THP, HTT canonical junction (CJ) mRNA, read-out: HTT CJ (IC50, decrease in canonical junction mRNA)
[8] = decrease in CJ mRNA levels, canonical junction qPCR, gene panel
[9] = Table 2A, THP, MYB alternative junction (AJ) mRNA, read-out: MYB AJ (AC50, increase in alternative junction mRNA)
[10] = Table 2A, THP, MYB canonical junction (CJ) mRNA, read-out: MYB CJ (IC50, decrease in canonical junction mRNA)
[11] = Table 2A (THP), AJ mRNA increase, read-out: HTT AJ (increase in alternative junction mRNA, AC50)
[12] = Table 2A (THP), CJ mRNA decrease, read-out: HTT CJ (decrease in canonical junction mRNA, IC50)
[13] = decrease in canonical junction (CJ) mRNA, gene panel qPCR, Table 3
[14] = Table 2A (THP), AJ mRNA increase, read-out: MYB AJ (increase in alternative junction mRNA, AC50)
[15] = Table 2A (THP), CJ mRNA decrease, read-out: MYB CJ (decrease in canonical junction mRNA, IC50)

| SMILES | GI50 [1] | AC50 (HTT mRNA [2]; [6]) | IC50 (HTT mRNA [2]; [7]) | IC50 (HTT mRNA [3]; [8]) | IC50 (MYB mRNA [4]; [8]) | AC50 (MYB mRNA [5]; [9]) | IC50 (MYB mRNA [5]; [10]) | AC50 (HTT mRNA [2]; [11]) | IC50 (HTT mRNA [2]; [12]) | IC50 (HTT mRNA [3]; [13]) | IC50 (MYB mRNA [4]; [13]) | AC50 (MYB mRNA [5]; [14]) | IC50 (MYB mRNA [5]; [15]) |
| --- | --- | --- | --- | --- | --- | --- | --- | --- | --- | --- | --- | --- | --- |
| C=CCNC1CCN(c2ccc(C(=O)Nc3cc(CO)c4nn(C)cc4c3)c3nn(C)cc23)CC1 [Compound 794, 4-[4-(allylamino)-1-piperidyl]-N-[7-(hydroxymethyl)-2-methyl-indazol-5-yl]-2-methyl-indazole-7-carboxamide] | 1 to 10 µM | > 10 µM | > 10 µM | > 10 µM | 0.1 to 1 µM | 1 to 10 µM | 0.1 to 1 µM | – | – | – | – | – | – |
| Cc1cn2nc(NC(=O)c3ccc(N4CCC(NC5CC5)CC4)c4cn(C)nc34)cc(CNS(C)(=O)=O)c2n1 [Compound 842] | 1 to 10 µM | > 10 µM | > 10 µM | > 10 µM | > 10 µM | > 10 µM | > 10 µM | – | – | – | – | – | – |
| CCNC1CCN(c2ccc(C(=O)Nc3cc(-n4ccccc4=O)c4nc(C)cn4c3)c3nn(C)cc23)CC1 [Compound 366, 4-[4-(ethylamino)-1-piperidyl]-2-methyl-N-[2-methyl-8-(2-oxo-1-pyridyl)imidazo[1,2-a]pyridin-6-yl]indazole-7-carboxamide] | > 10 µM | – | – | – | – | – | – | > 10 µM | > 10 µM | > 10 µM | > 10 µM | > 10 µM | > 10 µM |
| Cc1cn2cc(NC(=O)c3ccc(N4CCC(N)CC4)c4cn(C)nc34)nc2c(CNS(C)(=O)=O)n1 [Compound 865, 4-(4-amino-1-piperidyl)-N-[8-(methanesulfonamidomethyl)-6-methyl-imidazo[1,2-a]pyrazin-2-yl]-2-methyl-indazole-7-carboxamide] | > 10 µM | > 10 µM | > 10 µM | > 10 µM | 1 to 10 µM | 1 to 10 µM | 1 to 10 µM | – | – | – | – | – | – |
| COc1ccncc1NC(=O)c1c(F)cc(N2CCC(NC3CC3)CC2)c2cn(C)nc12 [Compound 414, 4-[4-(cyclopropylamino)-1-piperidyl]-6-fluoro-N-(4-methoxy-3-pyridyl)-2-methyl-indazole-7-carboxamide] | > 10 µM | – | – | – | – | – | – | > 10 µM | > 10 µM | > 10 µM | > 10 µM | > 10 µM | > 10 µM |
| COc1nc2c(C(=O)Nc3cc(C)c4nc(C)cn4n3)ccc(N3C[C@H](C)N[C@@H](C)C3)c2s1 [Compound 739, N-(2,8-dimethylimidazo[1,2-b]pyridazin-6-yl)-7-[(3S,5S)-3,5-dimethylpiperazin-1-yl]-2-methoxy-1,3-benzothiazole-4-carboxamide] | 0.1 to 1 µM | 0.1 to 1 µM | 1 to 10 µM | 1 to 10 µM | < 0.1 µM | < 0.1 µM | < 0.1 µM | – | – | – | – | – | – |
| Cc1cn2cc(NC(=O)c3c(F)cc(N4CCC(N(C)C)CC4)c4cn(C)nc34)nc2c(C)n1 [Compound 356, 4-[4-(dimethylamino)-1-piperidyl]-N-(6,8-dimethylimidazo[1,2-a]pyrazin-2-yl)-6-fluoro-2-methyl-indazole-7-carboxamide] | 1 to 10 µM | – | – | – | – | – | – | 1 to 10 µM | 1 to 10 µM | 1 to 10 µM | 0.1 to 1 µM | < 0.1 µM | 0.1 to 1 µM |
| CNC1CCC(Oc2ccc(C(=O)Nc3cn4cc(C)nc(C)c4n3)c3nn(C)cc23)CC1 (stereo not drawn) [Compound 592] | 1 to 10 µM | – | – | – | – | – | – | 1 to 10 µM | 1 to 10 µM | 1 to 10 µM | 1 to 10 µM | 1 to 10 µM | 1 to 10 µM |
| COc1cc2nn(C)cc2cc1C(=O)Nc1ccc(N2CCNCC2)c2cn(C)nc12 [Compound 489, 6-methoxy-2-methyl-N-(2-methyl-4-piperazin-1-yl-indazol-7-yl)-indazole-5-carboxamide] | > 10 µM | – | – | – | – | – | – | > 10 µM | > 10 µM | > 10 µM | > 10 µM | > 10 µM | > 10 µM |
| COc1cc2nn(C)cc2cc1NC(=O)c1c(F)cc(N2CCC(NC3CC3)CC2)c2cn(C)nc12 [Compound 396, 4-[4-(cyclopropylamino)-1-piperidyl]-6-fluoro-N-(6-methoxy-2-methyl-indazol-5-yl)-2-methyl-indazole-7-carboxamide] | < 0.1 µM | – | – | – | – | – | – | 0.1 to 1 µM | 0.1 to 1 µM | 0.1 to 1 µM | < 0.1 µM | < 0.1 µM | < 0.1 µM |
| COc1cc2nn(C)cc2cc1NC(=O)c1ccc(N2CCCC(OC3CNC3)C2)c2cn(C)nc12 (stereo not drawn) [Compound 602] | > 10 µM | > 10 µM | > 10 µM | – | – | > 10 µM | > 10 µM | – | – | > 10 µM | > 10 µM | – | – |
| CCNC1CCN(c2cc(F)c(C(=O)Nc3cn4cc(C)nc(C)c4c3F)c3nn(C)cc23)CC1 [Compound 468, 4-[4-(ethylamino)-1-piperidyl]-6-fluoro-N-(8-fluoro-1,3-dimethyl-pyrrolo[1,2-a]pyrazin-7-yl)-2-methyl-indazole-7-carboxamide] | 1 to 10 µM | – | – | – | – | – | – | > 10 µM | > 10 µM | > 10 µM | < 0.1 µM | < 0.1 µM | < 0.1 µM |
| Cc1cn2cc(NC(=O)c3ccc(N4CCC5NCCC5C4)c4cn(C)nc34)nc2c(C)n1 (stereo not drawn) [Compound 531] | 1 to 10 µM | – | – | – | – | – | – | > 10 µM | > 10 µM | > 10 µM | 1 to 10 µM | 1 to 10 µM | 1 to 10 µM |
| CCNC1CCN(c2cc(F)c(C(=O)Nc3cn4cc(C)nc(Cl)c4n3)c3nn(C)cc23)CC1 [Compound 391, N-(8-chloro-6-methyl-imidazo[1,2-a]-pyrazin-2-yl)-4-[4-(ethylamino)-1-piperidyl]-6-fluoro-2-methyl-indazole-7-carboxamide] | 0.1 to 1 µM | – | – | – | – | – | – | > 10 µM | > 10 µM | > 10 µM | < 0.1 µM | < 0.1 µM | < 0.1 µM |
| CCNC1CCN(c2ccc(C(=O)Nc3cc(Oc4cccnc4)c4nc(C)cn4c3)c3nn(C)cc23)CC1 [Compound 353, 4-[4-(ethylamino)-1-piperidyl]-2-methyl-N-[2-methyl-8-(3-pyridyloxy)-imidazo[1,2-a]-pyridin-6-yl]-indazole-7-carboxamide] | > 10 µM | – | – | – | – | – | – | 1 to 10 µM | 1 to 10 µM | 1 to 10 µM | 0.1 to 1 µM | 0.1 to 1 µM | 0.1 to 1 µM |
| CCNC1CCN(c2cc(F)c(C(=O)Nc3nc4c(C)nc(C)cc4o3)c3nn(C)cc23)CC1 [Compound 380, N-(4,6-dimethyl-oxazolo-[4,5-c]-pyridin-2-y1)-4-[4-(ethylamino)-1-piperidy1]-6-fluoro-2-methyl-indazole-7-carboxamide] | > 10 µM | – | – | – | – | – | – | > 10 µM | > 10 µM | > 10 µM | 1 to 10 µM | 1 to 10 µM | 1 to 10 µM |
| Cc1cn2cc(NC(=O)c3ccc(NC(=O)C4CCNC4)c4[nH]cnc34)cc(F)c2n1 (stereo not drawn) [Compound 614, N-(8-fluoro-2-methyl-imidazo[1,2-a]pyridin-6-yl)-7-(pyrrolidine-3-carbonylamino)-1H-benzimidazole-4-carboxamide] | > 10 µM | > 10 µM | 1 to 10 µM | 1 to 10 µM | 1 to 10 µM | 1 to 10 µM | 1 to 10 µM | – | – | – | – | – | – |
| Cc1cn2cc(NC(=O)c3ccc(N4CC(C5CNC5)C4)c4cn(C)nc34)nc2c(C)n1 [Compound 498] | > 10 µM | – | – | – | – | – | – | > 10 µM | > 10 µM | > 10 µM | > 10 µM | > 10 µM | > 10 µM |
| CCNC1CCN(c2ccc(C(=O)Nc3cc(C(N)=O)c4nc(C)cn4c3)c3nn(C)cc23)CC1 [Compound 317, N-(8-carbamoyl-2-methylimidazo[1,2-a]pyridin-6-yl)-4-(4-(ethylamino)piperidin-1-yl)-2-methyl-2H-indazole-7-carboxamide 2,2,2-trifluoroacetate] | > 10 µM | – | – | – | – | – | – | > 10 µM | > 10 µM | > 10 µM | > 10 µM | > 10 µM | > 10 µM |
| Cc1cc2cc(NC(=O)c3ccc(N4CCC(NC5CC5)CC4)c4cn(C)nc34)sc2c(C)n1 [Compound 483, 4-[4-(cyclopropyl-amino)-1-piperidyl]-N-(5,7-dimethyl-thieno[2,3-c]-pyridin-2-yl)-2-methyl-indazole-7-carboxamide] | 0.1 to 1 µM | – | – | – | – | – | – | > 10 µM | > 10 µM | > 10 µM | > 10 µM | > 10 µM | > 10 µM |
| Cn1cc2cc(NC(=O)c3ccc(N4CCC(NC5CC5)CC4)c4cn(C)nc34)cc(CNC(=N)N)c2n1 [Compound 871] | > 10 µM | > 10 µM | > 10 µM | > 10 µM | 1 to 10 µM | 1 to 10 µM | 1 to 10 µM | – | – | – | – | – | – |
